The values that follow come from ChEMBL document CHEMBL5034014, “Melanocortin 1 Receptor Agonists Based on a Bivalent, Bicyclic Peptide Framework” (J Med Chem, 2021).

Bridge positions count the residues as written; N and C are the ends. Square brackets hold non-standard residues; d marks the D form. Peptide text beside a SMILES is read from it. NMeW = CN[C@@H](Cc1c[nH]c2ccccc12)C(=O)O; NMeR = CN[C@@H](CCCNC(=N)N)C(=O)O

In test [1] the target is T1, Melanocortin receptor 4 (Homo sapiens, UniProt P32245). Description: Agonist activity at human melanocortin receptor 4 expressed in human T-REx-293 cells using high doxycycline assessed as stimulation of intracellular cAMP accumulation incubated for 45 mins by LANCE cAMP assay. It counts as functional. On the technique in general: cAMP levels reflect the balance of adenylyl cyclase and phosphodiesterase activity.
T1 sequence (P32245 whole entry): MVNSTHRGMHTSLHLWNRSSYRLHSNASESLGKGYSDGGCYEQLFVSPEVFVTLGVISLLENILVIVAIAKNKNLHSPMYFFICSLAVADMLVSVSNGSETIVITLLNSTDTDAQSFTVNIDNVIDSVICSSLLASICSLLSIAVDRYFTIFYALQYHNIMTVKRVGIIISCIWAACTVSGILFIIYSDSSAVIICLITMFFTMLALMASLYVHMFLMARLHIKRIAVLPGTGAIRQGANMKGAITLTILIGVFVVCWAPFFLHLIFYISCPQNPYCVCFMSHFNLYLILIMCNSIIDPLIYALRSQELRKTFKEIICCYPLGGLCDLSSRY

Test [2] concerns the target T2, Melanocyte-stimulating hormone receptor (Homo sapiens, UniProt Q01726). As to the kind of experiment: Agonist activity at human melanocortin receptor 1 expressed in human T-Rex-293 cells assessed as stimulation of intracellular cAMP accumulation incubated for 45 mins by LANCE cAMP assay. It is filed as functional, cell-based.
For test [3], the target named is T2, Melanocyte-stimulating hormone receptor. Description: Displacement of [125I]-NDP-alpha-MSH from human MC1R expressed in HEK2936E cell membrane measured after 16-23 hrs by 1450 microbeta trilux scintillation proximity assay. It is filed as cell membranes. (Loss of bound radioactivity is the signal in a displacement assay; it reports binding, not function.)
Test [4] deals with T1, Melanocortin receptor 4. As to the kind of experiment: Displacement of [125I]-NDP-alpha-MSH from human MC4R expressed in HEK2936E cell membrane measured after 16-23 hrs by 1450 microbeta trilux scintillation proximity assay. It counts as cell membranes.
For test [5], the target named is T3, Melanocortin receptor 3 (Homo sapiens, UniProt P41968). Description: Displacement of [125I]-NDP-alpha-MSH from human MC3R expressed in HEK2936E cell membrane measured after 16-23 hrs by 1450 microbeta trilux scintillation proximity assay. It is filed as cell membranes.
T3 sequence (P41968 whole entry): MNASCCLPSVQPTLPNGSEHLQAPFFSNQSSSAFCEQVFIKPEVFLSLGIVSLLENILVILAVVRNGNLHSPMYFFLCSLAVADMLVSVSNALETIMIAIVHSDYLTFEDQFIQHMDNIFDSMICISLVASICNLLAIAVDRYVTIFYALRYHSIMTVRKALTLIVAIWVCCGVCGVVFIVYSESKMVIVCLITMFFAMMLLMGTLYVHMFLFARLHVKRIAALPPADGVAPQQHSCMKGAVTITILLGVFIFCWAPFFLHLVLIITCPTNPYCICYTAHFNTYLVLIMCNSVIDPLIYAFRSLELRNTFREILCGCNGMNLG
In test [6] the target is Melanocortin receptor 5 (Homo sapiens, UniProt P33032). Description: Displacement of [125I]-NDP-alpha-MSH from human MC5R expressed in HEK2936E cell membrane measured after 16-23 hrs by 1450 microbeta trilux scintillation proximity assay. It is filed as cell membranes.
Chain of Melanocortin receptor 5 (P33032 whole entry): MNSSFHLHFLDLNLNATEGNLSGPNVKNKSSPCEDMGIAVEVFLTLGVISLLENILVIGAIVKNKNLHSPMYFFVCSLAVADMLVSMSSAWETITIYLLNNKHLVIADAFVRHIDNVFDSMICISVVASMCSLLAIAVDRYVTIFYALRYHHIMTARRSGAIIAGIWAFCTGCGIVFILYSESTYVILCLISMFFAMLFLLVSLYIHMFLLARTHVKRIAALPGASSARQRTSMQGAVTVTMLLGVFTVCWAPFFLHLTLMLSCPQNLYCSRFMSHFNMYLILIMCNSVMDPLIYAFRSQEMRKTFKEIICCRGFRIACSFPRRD
The target in test [7] is T3, Melanocortin receptor 3. Description: Agonist activity at human melanocortin receptor 3 expressed in human T-REx-293 cells assessed as stimulation of intracellular cAMP accumulation incubated for 45 mins by LANCE cAMP assay. It is filed as functional, cell-based.
The target in test [8] is T1, Melanocortin receptor 4. Description: Agonist activity at human melanocortin receptor 4 expressed in human T-REx-293 cells using low doxycycline assessed as stimulation of intracellular cAMP accumulation incubated for 45 mins by LANCE cAMP assay. It is filed as functional, cell-based.

For orientation: EC50 means the concentration at which the effect is half-maximal. Broadly, the Ki is a dissociation constant, usually derived from enzyme kinetics or from competition with a known ligand. By IC50 is commonly meant the concentration that inhibits the measured activity by half. Lower therefore signals inhibition by little substance.

T2 sequence (Q01726 whole entry): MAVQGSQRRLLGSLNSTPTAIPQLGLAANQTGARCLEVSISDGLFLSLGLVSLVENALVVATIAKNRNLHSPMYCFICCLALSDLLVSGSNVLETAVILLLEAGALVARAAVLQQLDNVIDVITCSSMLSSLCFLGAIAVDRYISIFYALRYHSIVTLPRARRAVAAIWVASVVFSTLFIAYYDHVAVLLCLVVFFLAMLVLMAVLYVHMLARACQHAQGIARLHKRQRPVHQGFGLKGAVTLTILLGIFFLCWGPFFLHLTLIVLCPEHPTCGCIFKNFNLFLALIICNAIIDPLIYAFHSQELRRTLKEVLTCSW

For the compound `CC[C@H](C)[C@@H]1NC(=O)[C@@H]2CCCN2C(=O)[C@H](Cc2c[nH]c3ccccc23)NC(=O)[C@H](CCCNC(=N)N)N(C)C(=O)[C@@H](Cc2ccccc2)NC(=O)[C@H](Cc2c[nH]cn2)NC(=O)[C@H](CC(=O)O)NC(=O)[C@@H]2CSSC[C@H](NC1=O)C(=O)N[C@@H](Cc1c[nH]cn1)C(=O)N[C@H](Cc1ccccc1)C(=O)N(C)[C@@H](CCCNC(=N)N)C(=O)N(C)[C@@H](Cc1c[nH]c3ccccc13)C(=O)N[C@@H](CCCNC(=N)N)C(=O)N2`, the EC50 in test [1] was 1.29 nM; in test [2], 0.11 nM; in test [7], 11.2 nM; in test [8] it was 22.9 nM. Also, the Ki is 0.794 nM in test [3], 138 nM in test [4] and 479 nM in test [5]. Moreover, the 50% inhibitory concentration (IC50) in test [6] is 2000 nM.
Regarding `C[C@@H]1NC(=O)[C@H](Cc2c[nH]c3ccccc23)NC(=O)[C@H](CCCNC(=N)N)NC(=O)[C@@H](Cc2ccccc2)NC(=O)[C@H](Cc2c[nH]cn2)NC(=O)[C@@H]2CSSC[C@H](NC1=O)C(=O)N[C@@H]([C@@H](C)O)C(=O)N[C@@H](Cc1c[nH]cn1)C(=O)N[C@H](Cc1ccccc1)C(=O)N(C)[C@@H](CCCNC(=N)N)C(=O)N[C@@H](Cc1c[nH]c3ccccc13)C(=O)N1CCC[C@H]1C(=O)N[C@@H](Cc1ccccc1)C(=O)N2`, the EC50 is 0.537 nM in test [1], 0.692 nM in test [2], 6.61 nM in test [7] and 6.76 nM in test [8]. Besides, the figures for the Ki in test [3], in test [4] and in test [5] were 3.98 nM, 36.3 nM and 302 nM, respectively. The compound also had an IC50 in test [6] of 513 nM.
As for `CC[C@H](C)[C@@H]1NC(=O)[C@@H]2CCCN2C(=O)[C@H](Cc2c[nH]c3ccccc23)NC(=O)[C@H](CCCNC(=N)N)N(C)C(=O)[C@@H](Cc2ccccc2)NC(=O)[C@H](Cc2c[nH]cn2)NC(=O)[C@H]([C@@H](C)O)NC(=O)[C@@H]2CSSC[C@H](NC1=O)C(=O)N[C@@H](Cc1c[nH]cn1)C(=O)N[C@H](Cc1ccccc1)C(=O)N[C@@H](CCC(=O)O)C(=O)N[C@@H](Cc1c[nH]c3ccccc13)C(=O)N[C@@H](CCCNC(=N)N)C(=O)N2`, the EC50 in test [1] was 3.89 nM; in test [2], 3.63 nM; in test [7], 95.5 nM; in test [8], 105 nM. The Ki is 41.7 nM in test [3], 309 nM in test [4] and 5010 nM in test [5]. The IC50 in test [6] is 2690 nM.
For `CC(=O)N[C@H]1CSSC[C@@H](C(N)=O)NC(=O)[C@H](CCCNC(=N)N)NC(=O)[C@H](Cc2c[nH]c3ccccc23)N(C)C(=O)[C@H](CCCNC(=N)N)N(C)C(=O)[C@H](Cc2ccccc2)NC(=O)[C@H](Cc2c[nH]cn2)NC1=O` (Ac-CHF[NMeR][NMeW]RC-NH2; disulfide 1-7), the EC50 in test [1] is 63.1 nM; in test [2], 5.5 nM; in test [7], 398 nM; in test [8] it was 3630 nM. The Ki in test [3] is 56.2 nM; in test [4] it was 2040 nM; in test [5], 3160 nM. For the same compound, in test [6], the IC50 was 10000 nM.
Consider `CC[C@H](C)[C@@H]1NC(=O)[C@@H]2CCCN2C(=O)[C@H](Cc2c[nH]c3ccccc23)NC(=O)[C@H](CCCNC(=N)N)N(C)C(=O)[C@@H](Cc2ccccc2)NC(=O)[C@H](Cc2c[nH]cn2)NC(=O)[C@H]([C@@H](C)O)NC(=O)[C@@H]2CSSC[C@H](NC1=O)C(=O)N[C@@H](C)C(=O)N[C@H](Cc1ccccc1)C(=O)N[C@@H](CCCNC(=N)N)C(=O)N[C@@H](Cc1c[nH]c3ccccc13)C(=O)N[C@@H](CCCNC(=N)N)C(=O)N2`, for which the EC50 was 0.457 nM in test [1], 3.63 nM in test [2], 20 nM in test [7] and 2.57 nM in test [8]. Moreover, the Ki was 19.5 nM in test [3], 10.2 nM in test [4] and 380 nM in test [5]. The compound also gave an IC50 in test [6] of 162 nM.
As to `CC[C@H](C)[C@@H]1NC(=O)[C@@H]2CCCN2C(=O)[C@H](Cc2c[nH]c3ccccc23)NC(=O)[C@H](CCCNC(=N)N)N(C)C(=O)[C@@H](Cc2ccccc2)NC(=O)[C@H](Cc2c[nH]cn2)NC(=O)[C@H]([C@@H](C)O)NC(=O)[C@@H]2CSSC[C@H](NC1=O)C(=O)N[C@@H](Cc1c[nH]cn1)C(=O)N[C@H](Cc1ccccc1)C(=O)N[C@@H](CCCCN)C(=O)N[C@@H](Cc1c[nH]c3ccccc13)C(=O)N[C@@H](C)C(=O)N2`, the EC50 in test [1] is 3.16 nM; in test [2], 0.832 nM; in test [7] it was 38.9 nM; in test [8], 52.5 nM. The values for the Ki in test [3], in test [4] and in test [5] were 11.7 nM, 72.4 nM and 708 nM, respectively. Also, in test [6], the IC50 is 631 nM.
Take `CC[C@H](C)[C@@H]1NC(=O)[C@@H]2CCCN2C(=O)[C@H](Cc2c[nH]c3ccccc23)NC(=O)[C@H](CCCNC(=N)N)N(C)C(=O)[C@@H](Cc2ccc3ccccc3c2)NC(=O)[C@@H]2CCCN2C(=O)[C@H](Cc2c[nH]c3ccccc23)NC(=O)[C@@H]2CSSC[C@H](NC1=O)C(=O)N[C@@H](Cc1c[nH]cn1)C(=O)N[C@H](Cc1ccccc1)C(=O)N[C@@H](CCCNC(=N)N)C(=O)N[C@@H](Cc1c[nH]c3ccccc13)C(=O)N[C@@H](C)C(=O)N2`: the EC50 in test [1] is 1.05 nM; in test [2], 1.55 nM; in test [7] it was 13.5 nM; in test [8], 31.6 nM. Moreover, the Ki in test [3] is 9.77 nM; in test [4], 7.94 nM; in test [5], 407 nM. This compound also had an IC50 in test [6] of 204 nM.
Take `CC[C@H](C)[C@@H]1NC(=O)[C@@H]2CCCN2C(=O)[C@H](Cc2c[nH]c3ccccc23)NC(=O)[C@H](CCCNC(=N)N)N(C)C(=O)[C@@H](Cc2ccccc2)NC(=O)[C@H](Cc2c[nH]cn2)NC(=O)[C@H](CC(=O)O)NC(=O)[C@@H]2CSSC[C@H](NC1=O)C(=O)N[C@@H](Cc1c[nH]cn1)C(=O)N[C@H](Cc1ccccc1)C(=O)N(C)[C@@H](CCCNC(=N)N)C(=O)N(C)[C@@H](Cc1c[nH]c3ccccc13)C(=O)N[C@@H](Cc1ccc(O)cc1)C(=O)N2`: the EC50 in test [1] was 4.27 nM; in test [2], 0.0646 nM; in test [7] it was 18.2 nM; in test [8], 85.1 nM. Besides, the values for the Ki in test [3], in test [4] and in test [5] were 0.708 nM, 355 nM and 891 nM, respectively. Further, the IC50 in test [6] is 1230 nM.
In the case of `CC[C@H](C)[C@@H]1NC(=O)[C@H](C)NC(=O)[C@H](Cc2c[nH]c3ccccc23)NC(=O)[C@H](CCCNC(=N)N)N(C)C(=O)[C@@H](Cc2ccccc2)NC(=O)[C@H](Cc2c[nH]cn2)NC(=O)[C@H]([C@@H](C)O)NC(=O)[C@@H]2CSSC[C@H](NC1=O)C(=O)N[C@@H](Cc1c[nH]cn1)C(=O)N[C@H](Cc1ccccc1)C(=O)N[C@@H](CCCNC(=N)N)C(=O)N[C@@H](Cc1c[nH]c3ccccc13)C(=O)N[C@@H](C)C(=O)N2`, the EC50 is 0.132 nM in test [1], 0.0912 nM in test [2], 1.15 nM in test [7] and 1.23 nM in test [8]. Besides, the Ki in test [3] was 1.41 nM; in test [4] it was 25.7 nM; in test [5], 107 nM. Further, the half-inhibitory concentration (IC50) in test [6] is 170 nM.
For the compound `CC[C@H](C)[C@@H]1NC(=O)[C@@H]2CCCN2C(=O)[C@H](Cc2c[nH]c3ccccc23)NC(=O)[C@H](CCCNC(=N)N)N(C)C(=O)[C@@H](Cc2ccccc2)NC(=O)[C@H](Cc2c[nH]cn2)NC(=O)[C@H]([C@@H](C)O)NC(=O)[C@@H]2CSSC[C@H](NC1=O)C(=O)N[C@@H](Cc1c[nH]cn1)C(=O)N[C@H](Cc1ccccc1)C(=O)N[C@@H](CCCNC(=N)N)C(=O)N[C@@H](Cc1ccc3ccccc3c1)C(=O)N[C@@H](C)C(=O)N2`, the half-maximal effective concentration (EC50) is 0.275 nM in test [1], more than 0.0501 nM in test [2], 2.19 nM in test [7] and 2.69 nM in test [8]. Further, the values for the Ki in test [3], in test [4] and in test [5] were 0.724 nM, 8.13 nM and 50.1 nM, respectively. In addition, in test [6], the IC50 was 89.1 nM.
With `CC[C@H](C)[C@@H]1NC(=O)[C@@H]2CCCN2C(=O)[C@H](Cc2c[nH]c3ccccc23)NC(=O)[C@H](CCCNC(=N)N)N(C)C(=O)[C@@H](Cc2ccccc2)NC(=O)[C@H](Cc2c[nH]cn2)NC(=O)[C@H]([C@@H](C)O)NC(=O)[C@@H]2CSSC[C@H](NC1=O)C(=O)N[C@@H](Cc1c[nH]cn1)C(=O)N[C@H](Cc1ccccc1)C(=O)N[C@@H](CCCNC(=N)N)C(=O)N[C@@H](Cc1c[nH]c3ccccc13)C(=O)N[C@@H](C)C(=O)N2`, the EC50 was 0.178 nM in test [1], 0.0562 nM in test [2], 1.45 nM in test [7] and 2.04 nM in test [8]. Besides, the Ki in test [3] is 0.912 nM; in test [4] it was 13.5 nM; in test [5], 85.1 nM. In test [6], the IC50 was 200 nM.
Consider `CC[C@H](C)[C@@H]1NC(=O)[C@@H]2CCCN2C(=O)[C@H](Cc2c[nH]c3ccccc23)NC(=O)[C@H](CCC(=O)O)NC(=O)[C@@H](Cc2ccccc2)NC(=O)[C@H](Cc2c[nH]cn2)NC(=O)[C@H]([C@@H](C)O)NC(=O)[C@@H]2CSSC[C@H](NC1=O)C(=O)N[C@@H](Cc1c[nH]cn1)C(=O)N[C@H](Cc1ccccc1)C(=O)N(C)[C@@H](CCCNC(=N)N)C(=O)N(C)[C@@H](Cc1c[nH]c3ccccc13)C(=O)N[C@@H](CCCNC(=N)N)C(=O)N2`, for which the EC50 was 22.9 nM in test [1], 0.141 nM in test [2], 72.4 nM in test [7] and 398 nM in test [8]. In addition, the values for the Ki in test [3], in test [4] and in test [5] were 1.29 nM, 589 nM and 1740 nM, respectively. In addition, the IC50 in test [6] is 3090 nM.
